Experimental findings from patent US20160221974A1, “SODIUM CHANNEL MODULATORS FOR THE TREATMENT OF PAIN AND DIABETES” (CHROMOCELL CORPORATION, priority 2013, published 2016) are described below.

The structures appear in SMILES notation. Where “and” joins values, the source holds several entries; their conditions need not be identical. Equal entries are not always repeated. A value given as a limit tells only on which side of the number the result lay.

The test system of assay [1] is Partial Sciatic Nerve Ligation (PSNL) model. The assay is described as follows: Partial Sciatic Nerve Ligation (PSNL) model, behavioral tests. Type of assay: in vivo, male Sprague-Dawley rats. As to conditions: oral route, relative to vehicle control, measured 30 minutes post dose. From the text: 250-350 g male Sprague-Dawley rats from appropriate animal resources were anesthetized with 2.5% isoflurane. A hind leg was shaved, and the skin was sterilized with 0.5% iodine and 75% alcohol. All surgical instruments were sterilized before surgery and between animals. An incision (1 cm) was made at the middle of the thigh in parallel with the muscle and sciatic nerve distribution. The muscle was exposed and dissected at the joint of two muscles (biceps femoris) indicated by the light colored (white) fascia line. The sciatic nerve was just beneath the muscle and was hooked out using an 18-20 G feeding needle (90 degree curved); the sciatic nerve was flat on the feeding needle and approximately one-half the diameter of the nerve is tightly ligated with 7-0 silk suture. A response of the injured leg twitch indicates the success of ligation. After checking hemostasis, bupivicaine 0.1-0.2 ml (0.125%) was given at the incision area, the muscle and the adjacent fascia are closed with 5-0 absorbable sutures. The skin was sutured with absorbable suture and tissue glue. The control group using sham surgery animals (about 8-10 animals) underwent the same surgical procedure but with no nerve ligation. Animals were returned to their home cage after recovery from anesthesia.
The analgesic effect of the test compound was expressed as a percent recovery (% Recovery) relative to the sham control group baseline and calculated according to the formula:
% Recovery=100%−{[(sham mean−test compound mean)/(sham mean−vehicle mean)]×100%}
wherein “sham mean” refers to average score in the sham-operated group; “test compound mean” refers to average score in the PSNL-group (animals with partial sciatic nerve ligation) or diabetic group (animals treated with STZ) treated with a test compound; “vehicle mean” refers to average score in the PSNL-group or diabetic group treated with vehicle only. The above formula was used to obtain data for the following in vivo behavioral tests.
The following behavioral tests were conducted (i.e., plantar test, paw pressure test, and von Frey test) started on day 3 and thereafter once weekly following surgery or use of a diabetic inducer. […]
Rats were placed on the glass surface of a thermal testing apparatus (Model 336, IITC/Life Science Instruments, Woodland Hills, Calif.) and were allowed to acclimate for 10 min before testing on the glass surface at room temperature. […] The paw withdrawal latency was recorded by a digital timer. The thermal threshold was determined as the mean withdrawal latency from two to three consecutive trials of both hindpaws. […]
Animals were placed under clear plastic boxes above a wire mesh floor, which allowed full access to the paws. […] Mechanical paw withdrawal thresholds (PWTs) were measured with the up-down testing paradigm. […]

Assay [2] has as its target T1, NaV1.7 (Homo sapiens, UniProt Q15858).
T1 construct: expressed in transfected cells
The assay is described as follows: Patchliner Electrophysiological In-Vitro Assay (NaV1.7). The class given is cell-based. To be noted: Patchliner patch clamp, HEK293, holding at V1/2. In a few lines: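 Automated whole-cell patch clamp at room temperature on HEK293 cells stably expressing hNav1.7 with β1 and β2 subunits. Inactivated-state Ki: cells held at their own V1/2, stepped to −120 mV for 5–10 ms, then to Vmax for 10–20 ms, repeated every 10 s; dose-dependent inhibition analysed.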

The target of assay [3] is T2, hNaV1.7 (Homo sapiens, UniProt Q15858).
T2 construct: expressed in transfected cells
Description: FDSS Membrane Potential In-Vitro Assay. Type of assay: cell-based. To be noted: stimulation with veratridine and scorpion venom, read-out: NaV1.7 IC50.

Assay [4] addresses T3, NaV1.5 (Homo sapiens, UniProt Q14524).
T3 construct: expressed in transfected cells
The assay is described as follows: Patchliner Electrophysiological In-Vitro Assay (NaV1.5). The class given is cell-based. As to conditions: Patchliner patch clamp, HEK293. Here is the method: The recording of sodium current from stable HEK293 cell lines expressing NaV1.7 or NaV1.5 was done on a Patchliner® instrument, Nanion Technologies. The Patchliner® is a fully automated bench-top patch clamp platform and can record simultaneously from up to eight single cells with GΩ seals.
For patch-clamp experiments, cells were grown under standard culturing conditions in Dulbecco's Modified Eagles medium supplemented with 10% fetal bovine serum, glutamine and HEPES. Cells were harvested and kept in suspension for up to 4 hours with no significant change in quality or ability to patch. Whole cell patch clamp recordings were conducted according to Nanion's standard procedure for the Patchliner®. Experiments were conducted at room temperature.
Voltage protocols were designed to establish: 1) peak current amplitude (Imax), 2) test potential (Vmax) and 3) half-inactivation potential (V1/2) for each of the eight individual cells. To determine V1/2, a standard steady-state inactivation protocol was executed using a series of fifteen 500 ms depolarizing pre-pulses in 10 mV increments (starting at −130 mV) and immediately followed by a 10 ms test pulse to Vmax. To estimate test compound affinity to the inactivated state of sodium channel (Ki), the holding potential for each cell was set automatically to the V1/2 calculated from a steady-state inactivation data. The current was activated with the following voltage protocol: holding at V1/2 for 2-5 seconds, return to the −120 mV for 5-10 ms to relieve fast inactivation, stepping to test potential (Vmax) for 10-20 ms. This voltage protocol was repeated every 10 seconds to establish the baseline with 2-3 buffer additions followed by the test compound addition. The dose-dependent inhibition was analyzed using Nanion's Data Analysis Package.
(In general: In patch-clamp work, channel activity is measured electrically.)

T2 sequence (Q15858 whole entry): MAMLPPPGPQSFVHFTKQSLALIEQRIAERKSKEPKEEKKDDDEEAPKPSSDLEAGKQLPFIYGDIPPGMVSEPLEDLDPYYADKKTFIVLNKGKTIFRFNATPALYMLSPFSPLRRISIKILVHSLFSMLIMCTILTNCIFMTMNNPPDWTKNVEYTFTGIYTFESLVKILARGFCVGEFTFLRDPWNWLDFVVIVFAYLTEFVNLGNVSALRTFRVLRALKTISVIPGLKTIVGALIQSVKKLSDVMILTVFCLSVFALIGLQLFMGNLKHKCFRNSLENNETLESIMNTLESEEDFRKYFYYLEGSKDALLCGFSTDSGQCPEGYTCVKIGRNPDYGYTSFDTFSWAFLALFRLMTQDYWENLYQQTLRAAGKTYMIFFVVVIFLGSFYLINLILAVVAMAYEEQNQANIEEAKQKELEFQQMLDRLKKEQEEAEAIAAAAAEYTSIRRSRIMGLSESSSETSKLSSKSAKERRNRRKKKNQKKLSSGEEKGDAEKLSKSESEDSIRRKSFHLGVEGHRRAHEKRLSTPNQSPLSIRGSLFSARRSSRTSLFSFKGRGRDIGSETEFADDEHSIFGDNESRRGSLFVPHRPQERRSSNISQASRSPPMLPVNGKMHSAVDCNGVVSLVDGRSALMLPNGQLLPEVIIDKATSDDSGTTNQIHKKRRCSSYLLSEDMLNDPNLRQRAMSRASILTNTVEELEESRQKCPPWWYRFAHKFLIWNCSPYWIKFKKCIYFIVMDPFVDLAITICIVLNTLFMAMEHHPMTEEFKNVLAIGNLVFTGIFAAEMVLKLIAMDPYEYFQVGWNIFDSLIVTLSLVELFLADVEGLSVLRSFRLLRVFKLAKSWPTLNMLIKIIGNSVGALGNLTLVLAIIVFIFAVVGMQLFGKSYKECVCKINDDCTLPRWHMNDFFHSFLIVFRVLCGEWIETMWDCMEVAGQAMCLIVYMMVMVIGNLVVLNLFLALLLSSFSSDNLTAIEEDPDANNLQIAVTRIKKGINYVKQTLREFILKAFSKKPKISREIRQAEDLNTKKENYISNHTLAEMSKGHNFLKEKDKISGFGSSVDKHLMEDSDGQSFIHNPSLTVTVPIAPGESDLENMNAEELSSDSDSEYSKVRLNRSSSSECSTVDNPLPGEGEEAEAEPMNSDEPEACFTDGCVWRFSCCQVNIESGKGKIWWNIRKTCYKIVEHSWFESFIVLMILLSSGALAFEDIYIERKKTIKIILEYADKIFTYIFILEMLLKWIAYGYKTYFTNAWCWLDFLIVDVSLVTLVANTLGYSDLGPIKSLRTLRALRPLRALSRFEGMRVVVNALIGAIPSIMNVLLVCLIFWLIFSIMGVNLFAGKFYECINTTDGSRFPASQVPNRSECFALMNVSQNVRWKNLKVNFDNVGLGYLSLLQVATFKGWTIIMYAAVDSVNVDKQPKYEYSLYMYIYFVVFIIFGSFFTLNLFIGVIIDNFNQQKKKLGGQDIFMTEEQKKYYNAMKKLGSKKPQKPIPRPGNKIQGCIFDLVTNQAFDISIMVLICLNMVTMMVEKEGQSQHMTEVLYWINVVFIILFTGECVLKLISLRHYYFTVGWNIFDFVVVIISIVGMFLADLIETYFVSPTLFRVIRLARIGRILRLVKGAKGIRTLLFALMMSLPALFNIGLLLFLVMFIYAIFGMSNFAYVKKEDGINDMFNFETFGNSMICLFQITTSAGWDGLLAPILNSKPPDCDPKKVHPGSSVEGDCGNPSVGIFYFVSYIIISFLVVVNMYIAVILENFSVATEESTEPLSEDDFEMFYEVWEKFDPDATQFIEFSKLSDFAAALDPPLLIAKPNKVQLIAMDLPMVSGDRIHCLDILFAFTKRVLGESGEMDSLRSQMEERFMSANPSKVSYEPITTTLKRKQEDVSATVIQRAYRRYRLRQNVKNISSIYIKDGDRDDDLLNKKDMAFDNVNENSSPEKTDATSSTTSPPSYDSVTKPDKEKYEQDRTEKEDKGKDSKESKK
T2 sequence (Q07699 19-218 partner): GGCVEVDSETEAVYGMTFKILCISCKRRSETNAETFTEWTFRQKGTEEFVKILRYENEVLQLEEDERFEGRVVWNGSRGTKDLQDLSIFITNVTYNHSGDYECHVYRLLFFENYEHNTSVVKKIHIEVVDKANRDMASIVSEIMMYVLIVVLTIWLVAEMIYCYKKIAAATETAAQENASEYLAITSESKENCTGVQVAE
T2 sequence (O60939 30-215 partner): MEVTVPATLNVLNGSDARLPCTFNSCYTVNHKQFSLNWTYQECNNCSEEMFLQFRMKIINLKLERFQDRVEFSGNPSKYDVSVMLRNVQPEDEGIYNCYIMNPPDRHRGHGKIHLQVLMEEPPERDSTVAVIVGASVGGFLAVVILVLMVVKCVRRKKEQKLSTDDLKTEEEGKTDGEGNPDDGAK
T3 sequence (Q14524 whole entry): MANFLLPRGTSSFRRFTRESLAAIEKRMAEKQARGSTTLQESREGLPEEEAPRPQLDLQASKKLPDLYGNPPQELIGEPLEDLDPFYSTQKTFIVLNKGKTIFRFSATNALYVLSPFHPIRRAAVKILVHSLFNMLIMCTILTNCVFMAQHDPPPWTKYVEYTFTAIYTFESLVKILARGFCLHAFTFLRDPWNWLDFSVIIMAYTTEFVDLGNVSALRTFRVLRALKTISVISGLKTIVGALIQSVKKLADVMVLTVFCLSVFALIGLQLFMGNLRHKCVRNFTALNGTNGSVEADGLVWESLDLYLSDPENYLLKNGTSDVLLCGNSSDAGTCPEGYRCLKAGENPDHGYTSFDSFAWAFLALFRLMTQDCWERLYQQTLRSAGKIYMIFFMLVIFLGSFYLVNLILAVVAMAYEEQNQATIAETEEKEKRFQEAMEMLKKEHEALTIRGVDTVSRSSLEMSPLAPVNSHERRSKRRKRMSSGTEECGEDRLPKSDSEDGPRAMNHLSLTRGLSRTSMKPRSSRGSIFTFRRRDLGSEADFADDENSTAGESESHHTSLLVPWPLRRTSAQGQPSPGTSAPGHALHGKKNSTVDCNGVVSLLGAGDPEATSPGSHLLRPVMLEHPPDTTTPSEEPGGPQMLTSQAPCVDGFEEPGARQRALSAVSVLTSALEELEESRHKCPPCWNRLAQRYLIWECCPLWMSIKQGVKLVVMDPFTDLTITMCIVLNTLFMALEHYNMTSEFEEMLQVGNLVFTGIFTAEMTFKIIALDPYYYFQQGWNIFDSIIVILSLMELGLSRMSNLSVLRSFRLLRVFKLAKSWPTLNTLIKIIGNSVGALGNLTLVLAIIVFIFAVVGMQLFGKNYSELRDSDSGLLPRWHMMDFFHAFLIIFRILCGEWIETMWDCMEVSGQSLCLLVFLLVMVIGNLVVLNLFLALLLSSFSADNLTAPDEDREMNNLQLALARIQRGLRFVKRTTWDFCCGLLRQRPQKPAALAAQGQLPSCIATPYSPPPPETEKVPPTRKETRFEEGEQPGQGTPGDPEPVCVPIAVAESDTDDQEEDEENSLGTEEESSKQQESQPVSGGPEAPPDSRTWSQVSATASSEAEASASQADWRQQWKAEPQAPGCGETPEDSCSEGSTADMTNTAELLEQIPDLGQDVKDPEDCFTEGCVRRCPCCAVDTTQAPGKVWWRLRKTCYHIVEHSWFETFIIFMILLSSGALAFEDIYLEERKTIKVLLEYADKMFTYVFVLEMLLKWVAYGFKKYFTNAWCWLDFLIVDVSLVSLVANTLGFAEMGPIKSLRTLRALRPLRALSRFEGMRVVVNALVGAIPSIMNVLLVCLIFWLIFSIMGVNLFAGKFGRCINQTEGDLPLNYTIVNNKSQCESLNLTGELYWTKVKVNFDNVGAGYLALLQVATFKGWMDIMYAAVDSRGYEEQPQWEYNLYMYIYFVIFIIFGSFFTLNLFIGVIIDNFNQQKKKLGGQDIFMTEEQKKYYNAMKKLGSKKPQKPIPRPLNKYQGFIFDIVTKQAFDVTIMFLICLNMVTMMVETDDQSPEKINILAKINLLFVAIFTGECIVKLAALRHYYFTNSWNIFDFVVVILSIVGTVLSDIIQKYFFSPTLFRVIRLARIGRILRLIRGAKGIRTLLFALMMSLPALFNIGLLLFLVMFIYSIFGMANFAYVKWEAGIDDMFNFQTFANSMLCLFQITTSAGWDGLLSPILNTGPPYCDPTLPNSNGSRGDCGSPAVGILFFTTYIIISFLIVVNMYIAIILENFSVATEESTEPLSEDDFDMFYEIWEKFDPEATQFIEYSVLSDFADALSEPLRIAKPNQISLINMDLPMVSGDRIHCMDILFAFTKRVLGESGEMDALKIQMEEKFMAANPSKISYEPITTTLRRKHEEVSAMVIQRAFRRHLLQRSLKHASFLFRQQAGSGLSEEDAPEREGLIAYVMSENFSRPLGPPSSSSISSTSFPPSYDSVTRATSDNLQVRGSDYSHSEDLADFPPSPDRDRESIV
T1 sequence (Q15858 whole entry): as the sequence (Q15858 whole entry) above
T1 sequence (Q07699 19-218 partner): as the sequence (Q07699 19-218 partner) above
T1 sequence (O60939 30-215 partner): as the sequence (O60939 30-215 partner) above

By IC50 is commonly meant the concentration that gives 50% inhibition. For the molecule `NC(=O)CNCCCc1cc(Cl)ccc1Oc1cc(F)c(S(=O)(=O)Nc2cscn2)cc1Cl` [Compound 49, 2-((3-(5-chloro-2-(2-chloro-5-fluoro-4-(N-(thiazol-4-yl)sulfamoyl)phenoxy)phenyl)propyl)amino)acetamide], the “effect in the tactile allodynia test” value in assay [1] was “no significant effect”. Moreover, the IC50 in assay [2] was less than 100 nM; in assay [3], 100 to 500 nM and 500 to 1000 nM; in assay [4], greater than 10000 nM.
